Substitutions are numbered along the chain they refer to. Where a name gives a salt, the structure may show the parent alone.
Legend:
[1] = biological target: T1, MRGPRX2-MUT (MRGPRX2 N62S mutation) (Homo sapiens, UniProt Q96LB1, N62S); assay: Primary HTS, Ca2+ mobilization (fluorescence ratio, B-score) in HEK293-Gα15 cells stably expressing the MRGPRX2 N62S mutation; format: cell-based; conditions: for B-scores (MUT): 10 μM compound, MRGPRX2-MUT (N62S) cells; for Change of B-scores (%): 10 μM
T1 construct: expressed in transfected cells
T1 sequence (Q96LB1 1-330 N62S): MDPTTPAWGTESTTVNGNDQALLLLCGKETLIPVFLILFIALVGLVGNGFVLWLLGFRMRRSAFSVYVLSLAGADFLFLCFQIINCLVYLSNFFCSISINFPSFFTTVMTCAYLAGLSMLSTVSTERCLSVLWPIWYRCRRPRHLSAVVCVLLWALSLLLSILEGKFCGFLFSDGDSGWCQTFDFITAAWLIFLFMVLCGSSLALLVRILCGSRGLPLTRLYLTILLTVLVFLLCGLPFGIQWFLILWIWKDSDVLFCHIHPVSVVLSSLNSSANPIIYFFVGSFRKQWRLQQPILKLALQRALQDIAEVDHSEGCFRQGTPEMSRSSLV
Description: (§1) We performed an experimental HTS on the Johns Hopkins Drug Library, which includes 1,811 (57%) FDA-approved drugs among 3,456 total compounds (28% of all known drugs worldwide) ([15]). We performed the HTS at the Johns Hopkins University ChemBioCORE Facility and employed HEK293-Gα15 cell lines that stably expressed MRGPRX2 protein.
(§2) We utilized 10 μM compounds (each compound was tested in triplicate) and calculated the compound effect using the signal-to-background fluorescence ratio (see Supplementary Methods).
(§3) In the HTS, we determined MRGPRX2 activation by a Ca^2+ mobilization assay that recorded a fluorescence change by utilizing a Functional Drug Screening System (FDSS 6000; Hamamatsu); we evaluated the compound effect using the calculated fluorescence ratio. We further applied the B-score normalization, which provided robust corrections for variation in fluorescence ratio ([22]).
(§4) We performed an experimental high-throughput screening (HTS) on the Johns Hopkins Drug Library (JHDL), which includes 1,811 (57%) FDA-approved drugs among 3,456 total compounds (28% of all known drugs worldwide). The remaining compounds in JHDL are catalogued in one or more of the resources below: British Approved Names (BAN); Dénominations Communes Françaises (DCF); International Nonproprietary Names (INN); Japanese Adopted Names (JAN); MI (Merck Index); National Formulary drug name (NF); and United States Accepted Names (USAN). The JHU drug library is stocked in 96 well plates at 10 mM in 100% DMSO and stored at -80 °C. We used a final concentration of 10 uM for each compound and DMSO concentration of 0.1% (tested in triplicate). […] We evaluated compound effect using the calculated fluorescence ratio. We further calculated B-scores, which are a relative potency score similar to Z scores in that they are the ratio of an adjusted raw value in the numerator to a measure of variability in the denominator.

[2] = biological target: T2, MRGPRX2-WT (wild-type MRGPRX2 receptor) (Homo sapiens, UniProt Q96LB1); assay: Primary HTS, Ca2+ mobilization (fluorescence ratio, B-score) in HEK293-Gα15 cells stably expressing wild-type MRGPRX2; format: cell-based; conditions: 10 μM compound
T2 construct: expressed in transfected cells
T2 sequence (Q96LB1 1-330): T1 sequence (Q96LB1 1-330 N62S) with S62N
Description: as §1, §2, §3, §4

[3] = MRGPRX2-MUT versus MRGPRX2-WT cells, Supplementary Table 2
[4] = MRGPRX2-MUT in comparison to MRGPRX2-WT cells, Supplementary Table 1
[5] = MRGPRX2-MUT in comparison to MRGPRX2-WT cells, Table 1
[6] = Supplementary Table 2, listed as Dextromethorphan (Delsym)

Row | Structure (SMILES) | B-scores (MUT) ([1]; Supplementary Table 2) | Change of B-scores (%) [1, 3] | B-scores (WT) ([2]; Supplementary Table 2) | B-scores (MUT) ([1]; Supplementary Table 1) | B-scores (MUT) ([1]; Table 1) | Change of B-scores (%) [1, 4] | Change of B-scores (%) [1, 5] | B-scores (WT) ([2]; Supplementary Table 1) | B-scores (WT) ([2]; Table 1) | B-scores (MUT) [1, 6] | Change of B-scores (%) ([1]; MRGPRX2-MUT versus MRGPRX2-WT cells, Supplementary Table 2, listed as Dextromethorphan (Delsym)) | B-scores (WT) [2, 6]
1 | O=C(O)c1cn(C2CC2)c2cc(N3CCNCC3)c(F)cc2c1=O [Ciprofloxacin] | 1.91 | -74% | 7.33 | – | – | – | – | – | – | – | – | –
2 | Cl.NC1CCN(c2c(F)cc3c(=O)c(C(=O)O)cn(C4CC4)c3c2Cl)C1 (centres unmarked) [Clinafoxacin Hydrochloride] | – | – | – | 0.92 | 0.92 | -96.48% | -96.48% | 26.08 | 26.08 | – | – | –
3 | CN(C)CCCN1c2ccccc2CCc2ccc(Cl)cc21 [Clomipramine Hydrochloride] | 2.17 | -92.83% | 30.29 | 2.17 | 2.17 | -92.83% | -92.83% | 30.29 | 30.29 | – | – | –
4 | C=C[C@@]1(C)CC(=O)[C@]2(O)[C@@]3(C)[C@@H](O)CCC(C)(C)[C@@H]3[C@H](O)[C@H](OC(C)=O)[C@@]2(C)O1 [Colforsin] | – | – | – | 0.76 | – | -96.40% | – | 21.10 | – | – | – | –
5 | C[C@@H](Oc1cc(-c2cnn(C3CCNCC3)c2)cnc1N)c1c(Cl)ccc(F)c1Cl [Crizotinib] | – | – | – | – | -0.44 | -101.99% | -101.99% | 22.06 | 22.06 | – | – | –
6 | CN(C)CCC=C1c2ccccc2C=Cc2ccccc21 [Cyclobenzaprine Hydrochloride] | 1.22 | -92.62% | 16.49 | – | – | – | – | – | – | – | – | –
7 | CN1CCC(=C2c3ccccc3C=Cc3ccccc32)CC1 [Cyproheptadine Hydrochloride] | – | – | – | 2.29 | 2.29 | -94.50% | -94.50% | 41.66 | 41.66 | – | – | –
8 | CO[C@@H](C(=O)N1Cc2n[nH]c(NC(=O)c3ccc(N4CCN(C)CC4)cc3)c2C1)c1ccccc1 [Danusertib] | – | – | – | 0.61 | 0.61 | -97.00% | -97.00% | 20.37 | 20.37 | – | – | –
9 | COc1cccc2c1C(=O)c1c(O)c3c(c(O)c1C2=O)C[C@@](O)(C(C)=O)C[C@@H]3O[C@H]1C[C@H](N)[C@H](O)[C@H](C)O1 [Daunorubicin] | 37.13 | 319.41% | 8.85 | – | – | – | – | – | – | – | – | –
10 | CNCCCN1c2ccccc2CCc2ccccc21 [Desipramine Hydrochloride] | -2.96 | -139.62% | 7.48 | – | – | – | – | – | – | – | – | –
11 | CNCCCN1c2ccccc2CCc2ccccc21 [Desipramine] | 1.19 | -91.45% | 13.96 | – | – | – | – | – | – | – | – | –
12 | CN(C)CC[C@@H](c1ccc(Cl)cc1)c1ccccn1 [Dexchlorpheniramine Maleate] | 0.56 | -97.76% | 24.82 | 0.56 | 0.56 | -97.76% | -97.76% | 24.82 | 24.82 | – | – | –
13 | Br.COc1ccc2c(c1)[C@]13CCCC[C@@H]1[C@H](C2)N(C)CC3.O [Dextromethorphan Hydrobromide Monohydrate] | – | – | – | 54.88 | – | 138.39% | – | 23.02 | – | – | – | –
14 | COc1ccc2c(c1)[C@]13CCCC[C@@H]1[C@H](C2)N(C)CC3 [Dextromethorphan hydrobromide] | 54.88 | 138.39% | 23.02 | 84.34 | – | 119.23% | – | 38.47 | – | 84.34 | 119.23% | 38.47
15 | CN1CC[C@@]23CCCC[C@@H]2[C@@H]1Cc1ccc(O)cc13 [Dextrorphan] | 68.33 | 113.94% | 31.94 | – | – | – | – | – | – | – | – | –
16 | CN(C)CCN1C(=O)c2ccccc2N(C)c2ccccc21 [Dibenzepin] | – | – | – | – | -1.62 | -106.37% | -106.37% | 25.48 | 25.48 | – | – | –
17 | CN1CCN(c2cc3c(cc2F)c(=O)c(C(=O)O)cn3-c2ccc(F)cc2)CC1 [Difloxacin Hydrochloride] | -1.54 | -103.45% | 44.81 | 1.54 | -1.54 | -103.45% | -103.45% | 44.81 | 44.81 | – | – | –
18 | COc1ccc([C@@H]2Sc3ccccc3N(CCN(C)C)C(=O)[C@@H]2OC(C)=O)cc1 [Diltiazem Hydrochloride] | – | – | – | – | – | -104.18% | – | 22.99 | – | – | – | –
19 | CCCCC[C@H](O)/C=C/[C@H]1[C@H](O)CC(=O)[C@@H]1C/C=C\CCCC(=O)O [Dinoprostone (Prostaglandin E2)] | – | – | – | 17.30 | – | -57.38% | – | 40.59 | – | – | – | –
20 | CN(C)CCOC(c1ccccc1)c1ccccc1 [Diphenhydramine Hydrochloride] | 0.66 | -93.55% | 10.26 | – | – | – | – | – | – | – | – | –
21 | CN(C)CCC=C1c2ccccc2COc2ccccc21 [Doxepin Hydrochloride] | 1.85 | -85.71% | 12.95 | – | – | – | – | – | – | – | – | –
22 | CNCC[C@H](Oc1cccc2ccccc12)c1cccs1 [Duloxetine Hydrochloride] | – | – | – | 0.64 | – | -98.55% | – | 44.22 | – | – | – | –
23 | CNC[C@H](O)c1ccc(O)c(O)c1 [Epinephrine Bitartrate] | 11.72 | -54.24% | 25.6 | 11.72 | – | -54.24% | – | 25.60 | – | – | – | –
24 | CNC[C@H](O)c1ccc(O)c(O)c1 [Epinephrine] | 8.28 | -52.73% | 17.52 | – | – | – | – | – | – | – | – | –
25 | CCCCC[C@H](O)/C=C/[C@@H]1[C@H]2C/C(=C/CCCC(=O)O)O[C@H]2C[C@H]1O [Epoprostenol] | – | – | – | 10.83 | – | -60.51% | – | 27.44 | – | – | – | –
26 | CC(Cc1ccc(O)cc1)NCC(O)c1cc(O)cc(O)c1 (centres unmarked) [Fenoterol Hydrobromide] | -0.03 | -100.16% | 20.31 | – | – | -100.16% | – | 20.31 | – | – | – | –
27 | CC(Cc1ccc(O)cc1)NCC(O)c1cc(O)cc(O)c1 (centres unmarked) [Fenoterol] | 13.78 | -41.33% | 23.48 | 13.78 | – | -41.33% | – | 23.48 | – | – | – | –
